Like-named read-outs stand apart in the source and are kept apart here.
Assays:
[1] = test system: CXCR4 and CD147 in U266 and RPMI cell lines; assay: CXCR4 and CD147 expression by qRT-PCR; type: cell-based; settings: alone and in combination; qRT-PCR and FACS; MM cell lines
[2] = test system: U266 and RPMI cell lines; assay: MTT cell viability assay, statements for both MM cell lines; settings: for CB2 receptor dependence of cytotoxic effect: pre-treatment with 20 μM AM630 (CB2 antagonist), FIG. 2
Protocol: (§1) U266 and RPM18226 (RPMI) MM cell lines were purchased from ATCC (LGC Standards, Milan, IT). Cell authentication was performed by IST (Genova, Italy). Cell lines were cultured in RPMI1640 medium (Lonza, Milan, IT) supplemented with 10% foetal bovine serum (FBS), 2 mM L-glutamine, 100 IU/ml penicillin, 100 μg/ml streptomycin and 1 mM sodium pyruvate. Cell lines were maintained at 37° C. with 5% CO2 and 95% humidity.
(§2) U266 and RPMI cell lines (4×10^4 cells/ml) were seeded in 96-well plates, in a final volume of 100 μl/well. After 1 day of incubation, compounds or vehicles were added. At least four replicates were used for each treatment.
At the indicated time point, cell viability was assessed by adding 0.8 mg/ml of 3-[4,5-dimethylthiazol-2-yl]-2,5 diphenyl tetrazolium bromide (MTT) (Sigma Aldrich) to the media. After 3 h, the plates were centrifuged, the supernatant was removed, and the pellet was solubilized with 100 μl/well DMSO.
(§3) The absorbance of the samples against a background control (medium alone) was measured at 570 nm using an ELISA reader microliter plate (BioTek Instruments, Winooski, Vt., USA). Synergistic activity of the THC-CBD combinations was determined by the isobologram and combination index (CI) methods (CompuSyn Software, ComboSyn, Inc. Paramus, N J 2007). The CI was used to express synergism (CI<1), additivity (CI=1) or antagonism (CI>1) and was calculated according to the standard isobologram equation (Chou, 2006).

[3] = test system: U266 and RPMI cell lines; assay: Cell migration assay (SDF-1, eCyPA chemotaxis); type: cell-based; settings: 24 h treatment; single and in combination; FIG. 8C
[4] = test system: U266 and RPMI cell lines; assay: Cell cycle analysis by PI staining and FACS, both MM cell lines; type: cell-based; settings: 12.5 μM, vs control, FIG. 3
[5] = test system: RPMI cell line; assay: MTT cell viability assay, RPMI
Protocol: as §1, §2
(§4) At the indicated time point, cell viability was assessed by adding 0.8 mg/ml of 3-[4,5-dimethylthiazol-2-yl]-2,5 diphenyl tetrazolium bromide (MTT) (Sigma Aldrich) to the media. […]
as §3

[6] = test system: LC3-II/LC3-1 and p62 in U266 and RPMI cell lines; assay: Western blot of autophagy markers LC3 and p62; type: cell-based; settings: 12.5 μM; 24 h of treatment; FIG. 4A
Protocol: (§5) U266 and RPMI cell lines were lysed in buffer containing protease inhibitor cocktail (Sigma Aldrich). Lysates were resolved by sodium dodecyl sulphate polyacrylamide gel (8-14%) and transferred onto Hybond-C extra membranes (GE Healthcare, Munich, Germany). Non-specific binding sites were blocked with 5% low-fat dry milk in phosphate-buffered saline 0.1% Tween 20 for 1 h.
(§6) Blots were incubated with the primary Abs: anti-iβ5 subunit (1:1000, Cell Signalling, Denver, Colo., USA), rabbit anti-LC3 (2 μg/ml, Novus Biologicals, Littleton, Colo., USA), rabbit anti-caspase-3 (1:1000, Cell Signalling), rabbit anti-p62 (1:1000, Cell Signalling), rabbit anti-H2AX (1:1000, Cell Signalling) and mouse anti-glyceraldehydes-3-phosphate dehydrogenase (GAPDH, 1:3000, OriGene, Rockville, Md., USA) Abs overnight and then incubated with their respective HRP-conjugated anti-mouse and anti-rabbit (1:2000, Cell Signalling) Abs for 1 h. The detection was performed using the LiteAblot PLUS or the LiteAblot TURBO (EuroClone, Milano, Italy) kits, and densitometric analysis was carried out by a Chemidoc using the Quantity One software (Bio-Rad, Hercules, Calif., USA).
These experiments investigated if the increase in sub-G1 cell accumulation by THC-CBD combination treatment was due to an autophagic-cell death process. […]

[7] = test system: β5i subunit in U266 and RPMI cell lines; assay: β5i precursor and mature form by western blot after IFN-γ; type: cell-based; settings: both cell lines, FIG. 6B
Protocol: as §5, §6
The potential role of the combination of THC-CBD in regulating the β5i subunit was investigated. U266 and RPMI cell lines were treated with CBD and THC, after 24 h exposure to IFN-γ (100 U/ml).

[8] = test system: U266 cell line; assay: MTT cell viability assay, U266; settings: Homo sapiens
Protocol: as §1, §2, §4, §3

[9] = test system: γ-H2AX (H2AX) in U266 and RPMI cell lines; assay: Western blot of γ-H2AX; type: cell-based; settings: 24 h post-treatments; both cell lines; FIG. 5C
Protocol: as §5, §6
The presence of γ-H2AX (H2AX), a phosphorylated variant of histone 2A that is associated with DNA double-strand breaks was investigated.

[10] = test system: β5i subunit in U266 and RPMI cell lines; assay: β5i mRNA by qRT-PCR after IFN-γ; type: cell-based; settings: after 24 h IFN-γ (100 U/ml); 12.5 μM; respect to IFN-γ alone; FIG. 6A
[11] = test system: RPMI cell line; settings: Morelli et al. 2014, read-out: IC50, reducing cell viability; cited from earlier work
[12] = test system: U266 cell line; settings: Morelli et al. 2014, read-out: IC50, reducing cell viability; cited from earlier work
[13] = test system: U266; settings: Morelli et al. 2014; cited from earlier work
[14] = test system: RPMI; settings: Morelli et al. 2014; cited from earlier work

For `CC(C)C[C@H](NC(=O)[C@H](CCc1ccccc1)NC(=O)CN1CCOCC1)C(=O)N[C@@H](Cc1ccccc1)C(=O)N[C@@H](CC(C)C)C(=O)[C@@]1(C)CO1` [CFZ, carfilzomib], the “expression of CXCR4 and CD147 chemotactic receptors” value [1] was “reduce the expression”, the cell viability ([2]; presence or absence of IFN-γ, 72 h post-treatment, data not shown) was “reduced cell viability” and the “SDF-1-, eCyPA- and SDF-1/eCyPA-mediated chemotaxis compared with vehicle-treated cells” value [3] was “reduced”.
For `CCCCCc1cc(O)c2c(c1)OC(C)(C)[C@@H]1CCC(C)=C[C@@H]21` [THC, Tetrahydrocannabinol], the “accumulation in sub-G1 phase (hypodiploid DNA)” value ([4]; 48 h post-treatment) was “accumulation in sub-G1 phase”, the “cell accumulation in G1 phase” value ([4]; starting from 24 h post-treatment) was “induce cell accumulation in G1 phase” and the IC50 ([5]; 72 h, read-out: IC50, cell viability) was 30.8 µM. The “expression of CXCR4 and CD147 chemotactic receptors” value [1] was “reduce the expression”, the LC3-II/LC3-1 ratio [6] was “no effect” and the “CB2 receptor dependence of cytotoxic effect” value [2] was “not CB2 receptors dependent”. For the same compound, the “expression of precursor and mature form of β5i (protein)” value [7] was “low efficacy”, the IC50 ([8]; U-266, 72 h, read-out: IC50, cell viability) was 39.5 µM and the “levels of the phosphorylated form of H2AX” value [9] was “increase levels”. For the same compound, the “β5i expression level (mRNA) induced by IFN-γ” value [10] was “low effects” and the “SDF-1-, eCyPA- and SDF-1/eCyPA-mediated chemotaxis compared with vehicle-treated cells” value [3] was “reduced”.
For `C=C(C)[C@@H]1CCC(C)=C[C@H]1c1c(O)cc(CCCCC)cc1O` [CBD, Cannabidiol], the IC50 [11] is given as 22.4 µM, the cytotoxicity at 12.5 µM ([5]; read-out: decrease in cell viability) is given as 20% and the “expression of CXCR4 and CD147 chemotactic receptors” value [1] is given as “reduce the expression”. For the same compound, the IC50 [12] was 19.8 µM, the LC3-II/LC3-1 ratio [6] was “slight increase” and the “cytotoxic effects after pre-treatment with BAF1” value [2] was “reversed”. The “CB2 receptor dependence of cytotoxic effect” value [2] was “not CB2 receptors dependent”, the “blocking cell cycle in GO/G1 phase” value [13] was 38% and the “blocking cell cycle in GO/G1 phase” value [14] was 42%. For the same compound, the “expression of precursor and mature form of β5i (protein)” value [7] was “low efficacy”, the cytotoxicity at 12.5 µM ([8]; U-266, read-out: decrease in cell viability) was 20% and the “levels of the phosphorylated form of H2AX” value [9] was “increase levels”. For the same compound, the “β5i expression level (mRNA) induced by IFN-γ” value [10] was “low effects” and the “SDF-1-, eCyPA- and SDF-1/eCyPA-mediated chemotaxis compared with vehicle-treated cells” value [3] was “reduced”.

Reference: patent US11065227B2, “Use of cannabinoids in the treatment of multiple myeloma” (GW Research Limited, priority 2016, dated 2021)
